Reference: patent US9260476B2, “RNA targeting compounds and methods for making and using same” (The Research Foundation for The State University of New York, priority 2007, dated 2016)
“Also recorded” adds a separate entry of the source.

Columns and labels:
[1] = test system: C2C12 cell line expressing luciferase mRNA without r(CUG)^exp in the 3′ UTR; assay: Control luciferase assay without r(CUG) repeats; type: cell-based; settings: 50 μM
Protocol: C2C12 cell lines expressing 800 (C5-14) or 0 (C1-S) CTG repeats in the 3′ UTR of luciferase were maintained as monolayers in growth medium (1×DMEM (Invitrogen) supplemented with 10% FBS (Invitrogen), 1× Glutamax (Invitrogen), and 1× Penicillin/Streptomycin (MP Biomedicals, LLC)). The cells were plated in 96-well plates and allowed to grow for 24 h. The compound of interest was then added in 50 μL, and the cells were treated for 24 h.
The growth medium containing the compound of interest was removed and replaced with 100 μL of medium and 10 μL of WST-1 reagent (Roche). After 30 min, 60 μL aliquots were removed and placed into clear 96-well plates. The absorbance of the medium was measured at 450 nm and 690 nm. The corrected absorbance (Abs450-Abs690) was used to normalize each well for cell count.
The remaining medium containing WST-1 reagent was removed, and 20 μL of 1× Passive Lysis Buffer (Promega) was added to each well. The cells were placed at −20° C. for 15 min. After the buffer thawed, 100 μL of Luciferase Assay Substrate (Promega) were added to each well. Luminescence was immediately read on a SpectraMax M5 plate reader using an integration time of 5000 ms. The luminescence signal was normalized to the number of cells in the corresponding well using the results of the WST-1/cell proliferation assay.

[2] = test system: r(CUG)^exp nuclear foci in HeLa cells transfected with the DM1 mini-gene; assay: Fluorescence in situ hybridization (FISH) and confocal microscopy of nuclear foci; type: cell-based; settings: 25 μM, 16-24 h
Excerpt: Another hallmark of DM1-affected cells is the presence of nuclear foci that consist of r(CUG)^exp-protein complexes (26). Therefore, a fluorescence in situ hybridization assay (FISH) was used to probe if 4K-2-DR9 can decrease the occurrence of nuclear foci. HeLa cells were transfected with the DM1 mini-gene and treated with 4K-2-DR9. The cells were then probed with a 2′-O-methyl oligonucleotide labeled with Cy3 that is complementary to r(CUG)^exp. The cells were then imaged via confocal microscopy (FIG. 12). In the absence of 4K-2-DR9, multiple nuclear foci are observed in each cell, which correspond to r(CUG)^exp-protein complexes (FIG. 12a). […] Since 4K-2-DR9 is labeled with fluorescein, cellular permeability and localization can also be imaged.
HeLa cells were grown as monolayers in Mat-Tak glass-bottomed, 96-well plates. After the cells reached 90-95% confluency, they were transfected with 200 ng of a plasmid encoding a DM1 mini-gene (21) using Lipfoectamine 2000 per the manufacturer's standard protocol. […]
Another hallmark of DM1 is the presence of nuclear foci caused by aggregates of r(CUG)^exp and various proteins including MBNL1.(26-31) Thus, it was determined if nH-4 compounds can disrupt formation of nuclear foci. […] Fluorescence in situ hybridization (FISH) was then used to visualize the r(CUG)^exp. […]

`CCCN(CC(=O)N(CCC)CC(=O)N(CCC)CC(=O)N(CCC)CC(=O)N(CC(=O)N(CCC)CC(=O)N(CCC)CC(=O)N(CCC)CC(=O)N(CCC)CC(=O)N(CC(N)=O)Cc1cn(CCCNC(=O)CCCOc2cccc(-c3nc4ccc(-c5nc6ccc(N7CCN(C)CC7)cc6[nH]5)cc4[nH]3)c2)nn1)Cc1cn(CCCNC(=O)CCCOc2cccc(-c3nc4ccc(-c5nc6ccc(N7CCN(C)CC7)cc6[nH]5)cc4[nH]3)c2)nn1)C(=O)CNCc1cn(CCCNC(=O)CCCOc2cccc(-c3nc4ccc(-c5nc6ccc(N7CCN(C)CC7)cc6[nH]5)cc4[nH]3)c2)nn1` [Compound 3H-4] was tested, and the “luciferase activity in cell line without (CTG)800” value [1] was “Increased luciferase activity is not observed; also recorded: No effect on translation of firefly luciferase is observed” and the “disruption of nuclear foci” value [2] was “the number of foci is decreased and the foci are more diffuse”.
